This is an account of results in patent publication US20240390331A1, “ORAL BENDAMUSTINE FORMULATIONS” (TUBE Pharmaceuticals GmbH, priority 2017, published 2024).

Series [1] is described as follows: PK of bendamustine capsule formulations vs 60 min IV infusion in beagle dogs, cross over (Example 7). To be noted: dog, plasma. An excerpt: As bioanalytical method a fast and reliable method was used to determine bendamustine and its main metabolite γ-hydroxybendamustine (M3 metabolite) simultaneously in plasma of different species (Srinivas N R et al., Drug Res (Stuttg), 2016, 66(7), 351-356; Chandrashekar D V et al., Drug Res (Stuttg), 2017, doi: 10.1055/s-0043-108124).
The oral bioavailability and the PK profile of formulations of bendamustine with 2-hydroxypropyl-β-cyclodextrin and β-cyclodextrin were compared in beagle dogs.
Capsules with an amount of bendamustine hydrochloride for each of the two formulations to reach a dose of 12 mg/kg were administered to beagle dogs using a cross over design and compared to 60 min IV infusion administration. Capsule formulations were stored between 2-8° C. The respective IV formulation was prepared fresh immediately prior to dosing.

For series [2] the following is noted: bendamustine itself, Preiss R et al. 1985; cited from earlier work.

What is called AUC is the area under the concentration-time curve, a measure of exposure. Higher therefore signals high exposure. The Cmax is the peak of the concentration-time curve.

In series [1], `Cl.Cn1c(CCCC(=O)O)nc2cc(N(CCCl)CCCl)ccc21` [bendamustine, 4-(5-(bis-(2-chloro-ethyl)-amino)-1-methyl-1H-benzimidazol-2-yl)-butyric acid hydrochloride] displayed an AUC of 3.81 µg·h/mL and a maximum concentration (Cmax) of 4.3 µg/mL. Besides, the oral bioavailability entry in series [2] was “about 56%”.
